The subject of one experiment is synthesis of estrogens. Particulars: seven days, testosterone propionate-treated immature female rats.
Experiment [1] has as its system DMBA-induced Mammary Tumor. Nature of the experiment: DMBA-induced mammary tumor inhibition. The format is in vivo, Sprague-Dawley rats. Particulars: for Mean Tumor Area (mm^2) Start: start of test. How it is done: Mammary tumors were produced in female Sprague-Dawley rats which were 50-60 days old by the gavage administration of 20 mg of 7,12-dimethylbenz[a]anthracene (DMBA). About six weeks after DMBA administration, the mammary glands were palpated at weekly intervals for the appearance of tumors. Whenever one or more tumors appeared and were measurable in an animal, that animal was selected for experimentation. […] Each control and test group contained 8 animals. The test compound was administered either mixed into the food at a concentration of 300 ppm (corresponding to an appropriate daily dose of 30 mg/kg) or the compounds were dissolved or suspended in corn oil and administered once daily by gavage. Every experiment included a group of control rats having tumors and were either given food without the compound admixed or corn oil vehicle by gavage, depending on how the test compound was administered. […] The area of each tumor was calculated by multiplying the shortest and longest diameters of the tumor. The treatment and measurement of animals continued for 4-8 weeks at which time the final areas of the tumors were determined. For each compound (and control) at each dose level, the change in the mean tumor area was determined. The mean change was analyzed for its significance using Dunnett's t-test.

Where [2] appears, read: 300 ppm in feed (approximately 30 mg/kg/day).
Where [3] appears, read: 300 ppm in the diet, 5 weeks test.

Like-named read-outs stand apart in the source and are kept apart here.

Take `OC(c1ccc(Cl)cc1)(c1ccc(Cl)cc1)c1cncnc1` [compound 29, α,α-bis(4-chlorophenyl)-5-pyrimidinemethanol]: the “Mean Uterine Weight (mg)” value in the experiment on synthesis of estrogens (setting [2]) is reported as 75.00^+ mg. In addition, the “Mean Tumor Area (mm^2) Finish” value in experiment [1] (1 mg/kg daily by gavage, 5 weeks) is reported as 210^+ mm^2; in experiment [1] (5 mg/kg daily by gavage, 4 weeks) it was 123.5 mm^2; in experiment [1] (7.5 mg/kg daily by gavage, 5 weeks), 159^+ mm^2; in experiment [1] (15 mg/kg daily by gavage, 5 weeks), 9^+ mm^2; in experiment [1] (30 mg/kg daily by gavage, 4 weeks), 34.3 mm^2; in experiment [1] (30 mg/kg daily by gavage, 5 weeks) it was 146^+ mm^2. Further, the “Mean Tumor Area (mm^2) Finish” value is 10.0^+ mm^2 in experiment [1] (300 ppm in the diet, 5 weeks) and 355^+ mm^2 in experiment [1] (300 ppm in the diet, 8 weeks). The “Mean Tumor Area (mm^2) Start” value in experiment [1] (1 mg/kg daily by gavage, 5 weeks test) was 66 mm^2; in experiment [1] (5 mg/kg daily by gavage, 4 weeks test) it was 56.3 mm^2; in experiment [1] (7.5 mg/kg daily by gavage, 5 weeks test), 63 mm^2; in experiment [1] (15 mg/kg daily by gavage, 5 weeks test) it was 50 mm^2; in experiment [1] (30 mg/kg daily by gavage, 4 weeks test), 71.5 mm^2; in experiment [1] (30 mg/kg daily by gavage, 5 weeks test), 69 mm^2. Besides, the “Mean Tumor Area (mm^2) Start” value in experiment [1] (setting [3]) is listed as 60.7 mm^2; in experiment [1] (300 ppm in the diet, 8 weeks test) it was 160.4 mm^2.
For the compound `Clc1ccc(C(c2ccc(Cl)cc2)c2cncnc2)cc1` [compound 27, 5-bis(4-chlorophenyl)methylpyrimidine], the “Mean Uterine Weight (mg)” value is reported as 92.25^+ mg in the experiment on synthesis of estrogens (30 ppm in feed (approximately 3 mg/kg/day)) and 80.20^+ mg in the experiment on synthesis of estrogens (setting [2]). Also, the “Mean Tumor Area (mm^2) Finish” value in experiment [1] (300 ppm in the diet, 5 weeks) stood at 154 mm^2. Moreover, the “Mean Tumor Area (mm^2) Start” value in experiment [1] (setting [3]) stood at 78.6 mm^2.

(Values after patent publication EP0116431B1, “Aromatase inhibiting pyrimidine derivatives” (ELI LILLY AND COMPANY, priority 1983, dated 1984).)
